The text below walks through data of patent publication US7560586B2, “Acid and ester compounds and methods of using the same” (SmithKline Beecham Corporation, priority 2002, dated 2009).

Test [1] has as its target T1, human LXRβ ligand binding domain (Homo sapiens, UniProt P55055).
T1 construct: LXRβLBD(185-461) is eluted with a gradient from 50 to 500 mM imidazole; made in house; host or cells: E. coli BL21(DE3), vector pRSETa
T1 sequence (P55055 184-460 limits assumed): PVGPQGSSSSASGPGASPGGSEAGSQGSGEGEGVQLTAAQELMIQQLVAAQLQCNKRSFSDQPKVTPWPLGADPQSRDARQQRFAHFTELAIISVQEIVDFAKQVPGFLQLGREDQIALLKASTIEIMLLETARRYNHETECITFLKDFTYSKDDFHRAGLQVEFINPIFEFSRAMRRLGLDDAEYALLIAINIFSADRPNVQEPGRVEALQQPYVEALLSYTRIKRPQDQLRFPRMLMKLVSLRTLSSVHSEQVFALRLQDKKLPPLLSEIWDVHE
T1 sequence (Q15788 676-700 partner limits assumed): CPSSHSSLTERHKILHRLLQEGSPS
Nature of the test: Ligand Sensing Assay (LiSA) for LXRβ Agonist Activity (recruitment of SRC1-derived peptide, HTRF). The test is classed as biochemical. To be noted: 1 μM; over a background reading of 10000 fluorescence units. An excerpt: Test Method 1: Ligand Sensing Assay (LiSA) for LXRβ Agonist Activity
This assay measures the recruitment of a peptide derived from the coactivator protein, SRC1, to the agonist-bound LXRβ. Peptides derived from other nuclear receptor cofactors may be similarly prepared and assayed.
To generate the human LXRβ ligand binding domain suitable for LiSA, a modified polyhistidine tag (MKKGHHHHHHG) (SEQ ID No. 1) was fused in frame to the human LXRβ ligand binding domain (amino acids 185461 of Genbank accession number U07132) and subcloned into the expression vector pRSETa (Invitrogen) under the control of an IPTG inducible T7 promoter. The human LXRβ ligand binding domain was expressed in E. coli strain BL21(DE3). Ten-liter fermentation batches were grown in Rich PO4 media with 0.1 mg/mL Ampicillin at 25° C. for 12 hours, cooled to 9° C. and held at that temperature for 36 hours to a density of OD600=14. At this cell density, 0.25 mM IPTG was added and induction proceeded for 24 hours at 9° C., to a final OD600=16. […]
Typically 25-50 g of cell paste is resuspended in 250-500 mL TBS, pH 8.0 (25 mM Tris, 150 mM NaCl). […] After washing to baseline absorbance with equilibration buffer, the column is washed with approximately one column volume of TBS pH […] containing 95 mM imidazole. […] After washing to baseline absorbance with the dilution buffer the protein is eluted with a gradient from 50-500 mM NaCl. […]
On the technique in general: Time-resolved FRET reads energy transfer from a long-lived donor to a nearby acceptor.

Test [2] has as its target T2, LXRα ligand binding domain (Homo sapiens, UniProt Q13133).
T2 construct: his tag; made in house
T2 sequence (Q13133 183-447): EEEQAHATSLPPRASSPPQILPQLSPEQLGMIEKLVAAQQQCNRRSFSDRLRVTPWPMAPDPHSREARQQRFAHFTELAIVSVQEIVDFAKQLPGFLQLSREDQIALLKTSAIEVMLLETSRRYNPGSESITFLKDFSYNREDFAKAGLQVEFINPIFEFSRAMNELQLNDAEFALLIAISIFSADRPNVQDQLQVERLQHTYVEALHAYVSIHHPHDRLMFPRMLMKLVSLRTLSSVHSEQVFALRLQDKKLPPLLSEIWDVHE
T2 sequence (Q15788 676-700 partner): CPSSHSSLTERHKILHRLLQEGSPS
Nature of the test: Ligand Sensing Assay for LXRα Agonist Activity. The test is classed as biochemical. To be noted: 1 μM; over a background reading of 10000 fluorescence units. As to the method: Test Method 2: Ligand Sensing Assay for LXRα Agonist Activity
The assay for LXRα was run according to the procedures of Test Method 1, above using his-tagged LXRα ligand binding domain (amino acids 183447 of Genbank accession number U22662, with the 14th amino acid corrected to A from R). In this assay 1 μM 24(S), 25-epoxycholesterol gave a reading of 20000 fluorescence units over a background reading of 10000 fluorescence units.

`C[C@H](CC[C@@H]1OC1(C)C)[C@H]1CC[C@H]2[C@@H]3CC=C4C[C@@H](O)CC[C@]4(C)[C@H]3CC[C@]12C` [24(S), 25-epoxycholesterol]: the reading in test [1] and in test [2] was 20000 fluorescence units in each case.
